In patent US20220304348A1, “TRITERPENE GLUCURONIDES AND THEIR USE AS FLAVOR MODIFIERS” (Firmenich SA, priority 2019, published 2022):

Test: Sweetness enhancement taste panel (sweetness and licorice taste ratings of 5% sucrose solutions)
Type: in vivo, human
Details: taste panel rating on a scale from 0 to 10; compound at 50 ppm in 5% sucrose solution in Henniez water; no flavor modifier = 5.0
Experimental: A test compounds were tested for its sweetness enhancement of a 5% (w/w) aqueous solution of sucrose. Taste panelists were asked to taste the following 5% sucrose solutions in Henniez water and rate their sweetness on a scale from 0 to 10, and to rate the presence of any licorice taste in the sample on a scale from 0 to 10.

With CC1(C)[C@@H](O[C@@H]2O[C@H](C(=O)O)[C@@H](O)[C@H](O)[C@H]2O)CC[C@]2(C)[C@H]3C(=O)C=C4[C@@H]5C[C@@](C)(C(=O)O)CC[C@]5(C)CC[C@@]4(C)[C@]3(C)CC[C@@H]12 [Compound 108, β-Glycyrrhizin Monoglucuronate] as the compound, how does the “Sweetness (0-10)” value read?
Its value is 5.8.
